Data: paper PMC10056485 (International Journal of Molecular Sciences, 2023)
Where “and” joins values, the source holds several entries; their conditions need not be identical. Identical values can stand only once. Like-named read-outs stand apart in the source and are kept apart here. Marks after values point to notes of the source that are not given here.

Columns and labels:
[1] = Organ distribution (biodistribution) of cabozantinib in rats with or without radiotherapy; type: in vivo, Sprague–Dawley rats; settings: for Concentration of cabozantinib in brain / Concentration of cabozantinib in heart / Concentration of cabozantinib in kidney / Concentration of cabozantinib in liver / Concentration of cabozantinib in lung / Concentration of cabozantinib in spleen: rat, 6 mg/kg p.o. 3 days, six hours after administration
Experimental: The whole liver was targeted for irradiation. […] The data were collected from six rats per group.
Nine Gy was used to simulate the SBRT dose.
The brain, liver, heart, spleen, lung and kidney were collected and weighed. These collected samples were stored at −20 °C until analysis.
The thawed organ samples were homogenized in 50% aqueous acetonitrile (the ratio of sample weight to volume was 1:5), and the homogenate was centrifuged at 13,000× g for 10 min at 4 °C. The supernatant was collected, placed in brown Eppendorf tubes, and stored at −20 °C until analysis. Briefly, each organ sample (50 μL) was combined with 150 μL of IS solution (diethylstilbestrol) for protein precipitation. Finally, 20 μL of filtrate was subjected to HPLC analysis.

[2] = Sprague-Dawley, rat, in vivo
Experimental: (§1) The HPLC system consisted of a chromatographic pump (LC-20AT), an online injector (SIL-20C) equipped with a 10 μL sample loop to inject the sample and an ultraviolet detector (SPD-M20A). […] Biochanin A was used as the internal standard (IS), and the retention time of biochanin A was 3.8 min (Figure 4).
(§2) A freely moving rat model was designed for the current study [19]. Briefly, the whole liver for the EBRT technique or central area 1.5 × 1.5 cm in size for the SBRT technique of rats was localized by computed tomography. For the whole liver field, the cranial margin was set 5 mm from the top of the diaphragm, and the caudal margin was set 5 mm lower than the liver margin. The whole liver was targeted for irradiation. […] The data were collected from six rats per group.
(§3) A radiation dose of 2 Gy was considered the daily conventional dose or the off-target dose around the target that received an ablation RT dose. Nine Gy was used to simulate the SBRT dose. […] Rats were initially anesthetized with pentobarbital (50 mg/kg, i.p.) and remained anesthetized throughout the experimental period. After the surgery, the rats were placed in an experimental cage and allowed to recover for 1 day. Cabozatinib was dissolved in triply deionized water and administered (6 mg/kg, p.o.) to the rats (n = 6 per group).
(§4) Blood samples were collected via polyethylene tubing (PE-50) implanted into the jugular vein of each rat in a heparin-rinsed vial. An aliquot of 100–120 µL of blood was collected at time intervals of 0, 5, 15, 30, 45, 60, 90, 120, 150, 180, 210 and 240 min following drug administration. At each time point, 200 μL of blood was drawn into heparin-rinsed Eppendorf tubes and then centrifuged at 13,000 rpm for 10 min at 4 °C to obtain plasma. Plasma was stored at −20 °C until analysis. Each collected blood sample was transferred to a heparinized microcentrifuge tube and centrifuged at 13,000 rpm for 10 min. The resulting plasma (50 μL) was then mixed with 150 μL of internal standard solution (10 μg/mL). The denatured protein precipitate was separated by vortexing for 20 s and centrifuged at 13,000 rpm for 10 min at 4 °C.
(§5) Pharmacokinetic parameters, including the area under the concentration versus time curve (AUC), clearance (CL), elimination half-life (𝑡1/2), volume of distribution at steady state (Vss) and mean residence time (MRT), were calculated using the pharmacokinetics calculation software WinNonlin Standard Edition, Version 1.1 (Scientific Consulting, Apex, NC, USA) by a compartmental method. Relative bioavailability (RB %) = (AUCirradiated/AUCcontrol) × 100.

[3] = cited from earlier work
[4] = metastatic renal cell carcinoma patients, cited from earlier work
[5] = cited from earlier work; remark: listed apart in the source
plasma protein = settings: cited from earlier work
[6] = design: method as in PMID 30649748; settings: cited from earlier work
[7] = tested on: triple-negative 4T1 cells; settings: combination of RT with cabozantinib, in vitro; cited from earlier work
tumor growth = settings: combination of cabozantinib and irradiation, in vivo; cited from earlier work
[8] = Pharmacokinetics of cabozantinib in plasma of freely moving rats with or without liver radiotherapy; settings: for AUC(0-t): AUC0-T; for AUC(0-t) / Cmax / MRT / Tmax / Vss: rat plasma, 6 mg/kg p.o. q.d. 3 days
Experimental: as §1, §2, §3, §4, §5

[9] = rats, RT9Gy×3 f'x sequential compared to RT9Gy×3 f'x concurrent regimen, p = 0.02
[10] = phase III study of HCC, cabozantinib alone
[11] = Sprague-Dawley, rat, plasma, po, 6 mg/kg, RT 2Gy x 3 f'x concurrent
[12] = Sprague-Dawley, rat, plasma, po, 6 mg/kg, RT 2Gy x 3 f'x sequential
[13] = Sprague-Dawley, rat, plasma, po, 6 mg/kg, RT 9Gy x 3 f'x concurrent
[14] = Sprague-Dawley, rat, plasma, po, 6 mg/kg, RT 9Gy x 3 f'x sequential
[15] = Sprague-Dawley, rat, plasma, po, 6 mg/kg, cabozantinib only (no RT)

COc1cc2nccc(Oc3ccc(NC(=O)C4(C(=O)Nc5ccc(F)cc5)CC4)cc3)c2cc1OC [cabozantinib]
Concentration of cabozantinib in brain ([1]; RT 2Gy concurrent): 0.00 ± 0.00 µg/mL or µg/g | Concentration of cabozantinib in heart ([1]; RT 2Gy concurrent): 0.52 ± 0.39 µg/mL or µg/g | Concentration of cabozantinib in kidney ([1]; RT 2Gy concurrent): 0.17 ± 0.06 µg/mL or µg/g | Concentration of cabozantinib in liver ([1]; RT 2Gy concurrent): 0.39 ± 0.16 µg/mL or µg/g | Concentration of cabozantinib in lung ([1]; RT 2Gy concurrent): 0.40 ± 0.34 µg/mL or µg/g | Concentration of cabozantinib in spleen ([1]; RT 2Gy concurrent): 0.16 ± 0.03 µg/mL or µg/g | Concentration of cabozantinib in brain ([1]; RT 2Gy sequential): 0.00 ± 0.00 µg/mL or µg/g | Concentration of cabozantinib in heart ([1]; RT 2Gy sequential): 0.26 ± 0.11 µg/mL or µg/g | Concentration of cabozantinib in kidney ([1]; RT 2Gy sequential): 0.29 ± 0.09 ^a µg/mL or µg/g | Concentration of cabozantinib in liver ([1]; RT 2Gy sequential): 0.47 ± 0.18 µg/mL or µg/g | Concentration of cabozantinib in lung ([1]; RT 2Gy sequential): 0.35 ± 0.19 µg/mL or µg/g | Concentration of cabozantinib in spleen ([1]; RT 2Gy sequential): 0.16 ± 0.05 µg/mL or µg/g | Concentration of cabozantinib in brain ([1]; RT 9Gy concurrent): 0.00 ± 0.00 µg/mL or µg/g | Concentration of cabozantinib in heart ([1]; RT 9Gy concurrent): 0.16 ± 0.05 µg/mL or µg/g | Concentration of cabozantinib in kidney ([1]; RT 9Gy concurrent): 0.16 ± 0.07 µg/mL or µg/g | Concentration of cabozantinib in liver ([1]; RT 9Gy concurrent): 0.28 ± 0.14 µg/mL or µg/g | Concentration of cabozantinib in lung ([1]; RT 9Gy concurrent): 0.16 ± 0.10 µg/mL or µg/g | Concentration of cabozantinib in spleen ([1]; RT 9Gy concurrent): 0.20 ± 0.07 µg/mL or µg/g | Concentration of cabozantinib in brain ([1]; RT 9Gy sequential): 0.00 ± 0.00 µg/mL or µg/g | Concentration of cabozantinib in heart ([1]; RT 9Gy sequential): 0.29 ± 0.09 *^b µg/mL or µg/g | Concentration of cabozantinib in kidney ([1]; RT 9Gy sequential): 0.30 ± 0.14 ^b µg/mL or µg/g | Concentration of cabozantinib in liver ([1]; RT 9Gy sequential): 0.59 ± 0.24 ^b µg/mL or µg/g | Concentration of cabozantinib in lung ([1]; RT 9Gy sequential): 0.36 ± 0.08 *^b µg/mL or µg/g | Concentration of cabozantinib in spleen ([1]; RT 9Gy sequential): 0.16 ± 0.04 µg/mL or µg/g | Concentration of cabozantinib in brain ([1]; cabozantinib only (no RT)): 0.00 ± 0.00 µg/mL or µg/g | Concentration of cabozantinib in heart ([1]; cabozantinib only (no RT)): 0.14 ± 0.06 µg/mL or µg/g | Concentration of cabozantinib in kidney ([1]; cabozantinib only (no RT)): 0.22 ± 0.06 µg/mL or µg/g | Concentration of cabozantinib in liver ([1]; cabozantinib only (no RT)): 0.44 ± 0.19 µg/mL or µg/g | Concentration of cabozantinib in lung ([1]; cabozantinib only (no RT)): 0.25 ± 0.05 µg/mL or µg/g | Concentration of cabozantinib in spleen ([1]; cabozantinib only (no RT)): 0.12 ± 0.09 µg/mL or µg/g | Increase of biodistribution in the heart ([1]; rats, RT2Gy×3 f'x concurrent regimen, printed as compared to the concurrent regimen, p = 0.04): 271.4% and 271% | Increase of biodistribution in the lung ([1]; rats, RT9Gy×3 f'x sequential compared to RT9Gy×3 f'x concurrent regimen, p = 0.004): 125% | Increase of biodistribution in the heart [1, 9]: 81.3% | Increase of biodistribution in the liver [1, 9]: 110.5% | Increase of biodistribution in the kidneys ([1]; rats, RT9Gy×3 f'x sequential compared to RT9Gy×3 f'x concurrent regimen, p = 0.048): 87.5% | Increase of biodistribution in the heart ([1]; rats, RT9Gy×3 f'x sequential regimen compared with control group, p = 0.01): 107.1% and 107% | Increase of biodistribution in the lung ([1]; rats, RT9Gy×3 f'x sequential regimen compared with control group, p = 0.02): 44% | Detection of cabozantinib in the brain ([1]; rats, any of the groups): No cabozantinib was detected | Increase of kidney biodistribution ([1]; rats, sequential RT2Gy×3 f'x compared to control group, p = 0.02): 31.8% and 32% | Decrease of Tmax [2]: 72.8% | Increase of CL [2]: 249.0% | Increase of Tmax [2]: 404.1% | Rate of grade 3 or 4 adverse events ([3]; cabozantinib alone for HCC treatment): 10–17% | Serious adverse events rate ([3]; cabozantinib for HCC treatment): 12% | Grade 3 or 4 diarrhea [3, 10]: 10% | Grade 3 or 4 fatigue [3, 10]: 10% | Grade 3 or 4 hypertension [3, 10]: 16% | Grade 3 or 4 increased aspartate aminotransferase level [3, 10]: 12% | Grade 3 or 4 palmar–plantar erythrodysesthesia [3, 10]: 17% | Grade 3–4 AE rate ([4]; cabozantinib concurrent with SBRT): 3.6% | Grade 3–4 AE rate ([4]; cabozantinib concurrent with conventional RT): 6.3% | Half-life [5]: approximately 110 h | Increase of AUC of cabozantinib ([5]; liver function impaired): 63–81% | Time of second absorption peak after administration ([5]; plasma concentration–time profiles): approximately 24 h | Increase of AUC of cabozantinib ([5]; renal function impaired): 7–30% | Plasma protein binding (plasma protein): ≥ 99.7% | Osteonecrosis of jaw [6]: 1% | Risk of grade 3 or above hemorrhagic events [6]: 2.1–3% | Serious gastrointestinal perforation or fistula [6]: 1.2–3% | Effect on clonogenic survival [7]: a synergistic effect was found | Tumor growth control (tumor growth): not increased | concentration at 60 min ([8]; Sprague-Dawley, rat, plasma, po, 6 mg/kg): 800 ng/mL | AUC(0-t) [8, 11]: 5100 ng·h/mL | AUC(0-t) [8, 12]: 3900 ng·h/mL | AUC(0-t) [8, 13]: 4290 ng·h/mL | AUC(0-t) [8, 14]: 4180 ng·h/mL | AUC(0-t) [8, 15]: 4440 ng·h/mL | Cmax [8, 11]: 1600 ± 470 ng/mL | Cmax [8, 12]: 1360 ± 540 ng/mL | Cmax [8, 13]: 1370 ± 470 ng/mL | Cmax [8, 14]: 1350 ± 490 ng/mL | Cmax [8, 15]: 1440 ± 440 ng/mL | MRT [8, 11]: 13.7 h | MRT [8, 12]: 9.05 h | MRT [8, 13]: 11.2 h | MRT [8, 14]: 38.5 h | MRT [8, 15]: 26.7 h | Tmax [8, 11]: 0.611 h | Tmax [8, 12]: 3.08 h | Tmax [8, 13]: 0.639 h | Tmax [8, 14]: 2.92 h | Tmax [8, 15]: 2.25 h | Vss ([8]; RT 2Gy x 3 f'x concurrent): 3.942 ± 1.303 L/kg | Vss ([8]; RT 2Gy x 3 f'x sequential): 5.668 ± 2.22 L/kg | Vss ([8]; RT 9Gy x 3 f'x concurrent): 4.204 ± 1.272 L/kg | Vss ([8]; RT 9Gy x 3 f'x sequential): 3.153 ± 0.482 L/kg | Vss ([8]; cabozantinib only (no RT)): 4.831 ± 1.307 L/kg
